What was measured:
[1] = Measurement of maximal absorption wavelength of squarylium compound (Test Example 1); assay type: physicochemical; conditions: in chloroform, concentration 1×10^−6 mol/L, optical path length 10 mm
Method: The obtained squarylium compound B-12 was dissolved in chloroform (concentration: 1×10^−6 mol/L), and the maximum absorption wavelength λmax of the squarylium compound B-12 was measured using a cell having an optical path length of 10 mm and using a spectrophotometer UV-1800PC (manufactured by Shimadzu Corporation).

[2] = Evaluation of solubility of squarylium compound in toluene/cyclohexanone mixed solvent (Test Example 2); assay type: physicochemical; conditions: for Solubility: mixed solvent toluene/cyclohexanone=90/10 (vol %); for Solubility, measured dissolved amount: dissolved in 100 parts by mass of toluene/cyclohexanone=90/10 (vol %)
Method: Solubility of the obtained squarylium compound B-12 in a mixed solvent of toluene/cyclohexanone (toluene/cyclohexanone=90/10 (vol %)) was confirmed. Specifically, a dissolved amount (% by mass) of squarylium compound B-12 dissolved in 100 parts by mass of the mixed solvent of toluene/cyclohexanone was measured.
The solubility was evaluated by applying the obtained dissolved amount to the following standard.
—Evaluation Standard of Solubility—
B: 0.01% by mass or more and less than 0.1% by mass
C: less than 0.01% by mass

| SMILES | λmax (maximum absorption wavelength) [1] [nm] | Solubility [2] | Solubility, measured dissolved amount [2] | Solubility in an organic solvent (in words) ([2]; summary of Tables 1 to 5) |
| --- | --- | --- | --- | --- |
| CCCCC(CC)C(=O)NC1=CC(=[N+](/CCCC)c2ccc(C)cc2)/C=CC/1=C1\C(=O)C(c2ccc(N(CCCC)c3ccc(C)cc3)cc2NC(=O)C(CC)CCCC)=C1[O-] (stereo not shown) [A-1] | 688 | A (0.1% by mass or more) |  |  |
| CCCCC(CC)CN(c1ccc(C)cc1)c1ccc(C2=C([O-])/C(=C3C=C/C(=[N+](\CC(CC)CCCC)c4ccc(C)cc4)C=C/3NC(=O)C(C)(C)CC)C2=O)c(NC(=O)C(C)(C)CC)c1 (stereo not shown) [A-2] | 690 | A (0.1% by mass or more) |  |  |
| CCCCC(CC)CN(CC(CC)CCCC)c1ccc(C2=C([O-])/C(=C3/C=CC(=[N+](c4ccc(C)cc4)c4ccc(C)cc4)C=C3NC(=O)C(C)(C)CC)C2=O)c(NC(=O)C(C)(C)CC)c1 (stereo not shown) [A-4] | 699 | A (0.1% by mass or more) |  |  |
| CCCCc1ccc(N(CC(CC)CCCC)c2ccc(C3=C([O-])/C(=C4C=C/C(=[N+](\CC(CC)CCCC)c5ccc(CCCC)cc5)C=C/4NC(=O)c4c(C)cc(C)cc4C)C3=O)c(NC(=O)c3c(C)cc(C)cc3C)c2)cc1 (stereo not shown) [A-20] | 696 | A (0.1% by mass or more) |  |  |
| CCCCc1ccc(N(CC(CC)CCCC)c2ccc(C3=C([O-])/C(=C4C=C/C(=[N+](\CC(CC)CCCC)c5ccc(CCCC)cc5)C=C/4NC(=O)C(F)(F)F)C3=O)c(NC(=O)C(F)(F)F)c2)cc1 (stereo not shown) [A-22] | 688 | A (0.1% by mass or more) |  |  |
| CCCCc1ccc(N(CC(CC)CCCC)c2ccc(C3=C([O-])/C(=C4C=C/C(=[N+](\CC(CC)CCCC)c5ccc(CCCC)cc5)C=C/4NC(=O)c4ccccc4C)C3=O)c(NC(=O)c3ccccc3C)c2)cc1 (stereo not shown) [A-29] | 695 | A (0.1% by mass or more) |  |  |
| CC(=O)NC1=CC(=[N+](c2ccccc2)c2ccccc2)C=C/C1=C1/C(=O)C(c2ccc(N(c3ccccc3)c3ccccc3)cc2NC(C)=O)=C1[O-] [C-2, reference compound] | 737 | C (less than 0.01% by mass) | (<0.005% by mass |  |
| Cc1ccc(N(C)c2ccc(C3=C([O-])/C(=C4C=C/C(=[N+](\C)c5ccc(C)cc5)C=C\4O)C3=O)c(O)c2)cc1 [C-3, reference compound] | 658 | C (less than 0.01% by mass) | (<0.005% by mass |  |
| CCN(c1ccc(C)cc1)c1ccc(C2=C([O-])/C(=C3C=C/C(=[N+](\CC)c4ccc(C)cc4)C=C/3NC(=O)C(C)C)C2=O)c(NC(=O)C(C)C)c1 [C-4, reference compound] | 685 | B (0.01% by mass or more and less than 0.1% by mass) |  | exhibiting solubility in an organic solvent |
| CCCCN(c1ccccc1)c1ccc(C2=C([O-])/C(=C3C=C/C(=[N+](\CCCC)c4ccccc4)C=C\3NC(C)=O)C2=O)c(NC(C)=O)c1 [C-6, reference compound] | 681 | C (less than 0.01% by mass) | (<0.01% by mass |  |

Second part, led by results:

| λmax (maximum absorption wavelength) [1] [nm] | Solubility [2] | Solubility, measured dissolved amount [2] | SMILES | Solubility in an organic solvent (in words) ([2]; summary of Tables 1 to 5) |
| --- | --- | --- | --- | --- |
| 681 | A (0.1% by mass or more) |  | CCCCC(CC)CN(CC(CC)CCCC)c1ccc(C2=C([O-])/C(=C3C=C/C(=[N+](\CC(CC)CCCC)c4ccc(C)cc4)C=C/3NC(=O)C(C)(C)CC)C2=O)c(NC(=O)C(C)(C)CC)c1 (stereo not shown) [A-5] |  |
| 687 | A (0.1% by mass or more) |  | CCCCc1ccc(N(CC(CC)CCCC)c2ccc(C3=C([O-])/C(=C4C=C/C(=[N+](\CC(CC)CCCC)c5ccc(CCCC)cc5)C=C/4NC(=O)C(C)(C)CC)C3=O)c(NC(=O)C(C)(C)CC)c2)cc1 (stereo not shown) [A-19] |  |
| 688 | A (0.1% by mass or more) |  | CCCCC(CC)CN(c1ccc(C2=C([O-])/C(=C3C=C/C(=[N+](\CC(CC)CCCC)c4ccc(C)cc4C)C=C/3NC(=O)C(C)(C)CC)C2=O)c(NC(=O)C(C)(C)CC)c1)c1ccc(C)cc1C (stereo not shown) [A-26] |  |
| 695 | A (0.1% by mass or more) |  | CCCCc1ccc(N(CC(CC)CCCC)c2ccc(C3=C([O-])/C(=C4C=C/C(=[N+](\CC(CC)CCCC)c5ccc(CCCC)cc5)C=C/4NC(=O)c4ccccc4)C3=O)c(NC(=O)c3ccccc3)c2)cc1 (stereo not shown) [A-28] |  |
| 697 | A (0.1% by mass or more) |  | CCCCc1ccc(N(CC(CC)CCCC)c2ccc(C3=C([O-])/C(=C4C=C/C(=[N+](\CC(CC)CCCC)c5ccc(CCCC)cc5)C=C/4NC(=O)c4ccc5ccccc5c4)C3=O)c(NC(=O)c3ccc4ccccc4c3)c2)cc1 (stereo not shown) [A-30] |  |
| 680 | C (less than 0.01% by mass) | (<0.005% by mass | CC(=O)NC1=CC(=[N+](/C)c2ccccc2)/C=CC/1=C1/C(=O)C(c2ccc(N(C)c3ccccc3)cc2NC(C)=O)=C1[O-] [C-1, reference compound] |  |
